The record followed here is paper PMC6356164, “Identification of a novel lactose oxidase in Myrmecridium flexuosum NUK‐21” (FEBS Open Bio, 2019).

This experiment has as its system T1, lactose oxidase (LOD).
T1 construct: native enzyme purified from wheat bran solid culture; 2 Zn per mole, no FAD or heme
The experiment is described as follows: peroxidase-4-aminoantipyrine assay, Hanes-Woolf plot. Format: biochemical, Myrmecridium flexuosum. Conditions: 50 mM Tris-HCl pH 7.8, 30 °C, O2 as acceptor. The source says: peroxidase-4-aminoantipyrine assay, Hanes-Woolf plot on lactose oxidase (LOD)

The mark [1] stands for this setting: substrate inhibition above 1 mM.

As to `OC[C@H]1O[C@@H](O[C@H]2[C@H](O)[C@@H](O)C(O)O[C@@H]2CO)[C@H](O)[C@@H](O)[C@@H]1O` (stereo partly drawn) [Cellobiose], the Km under setting [1] was determined as 63 µM. `OC[C@H]1O[C@H](O[C@H]2[C@H](O)[C@@H](O)C(O)O[C@@H]2CO)[C@H](O)[C@@H](O)[C@@H]1O` (stereo partly drawn) [Maltose]: the Michaelis constant (Km) is 22000 µM. In the case of `OC[C@H]1O[C@@H](O[C@H]2[C@H](O)[C@@H](O)C(O)O[C@@H]2CO)[C@H](O)[C@@H](O)[C@H]1O` (stereo partly drawn) [Lactose], the Michaelis constant (Km) under setting [1] is 76 µM.
